Assay results taken from patent US5085992A, “Microbial transformation process for antihypertensive products” (Merck & Co., Inc., priority 1991, dated 1992).
pIC50: −log10 of the molar value.

Target: T1, Angiotensin II (A II) receptor (Oryctolagus cuniculus, UniProt P34976)
T1 construct: tissue Pel-Freeze Biologicals; host or cells: rabbit aorta, membrane preparation (frozen aortae)
T1 sequence (P34976 1-359): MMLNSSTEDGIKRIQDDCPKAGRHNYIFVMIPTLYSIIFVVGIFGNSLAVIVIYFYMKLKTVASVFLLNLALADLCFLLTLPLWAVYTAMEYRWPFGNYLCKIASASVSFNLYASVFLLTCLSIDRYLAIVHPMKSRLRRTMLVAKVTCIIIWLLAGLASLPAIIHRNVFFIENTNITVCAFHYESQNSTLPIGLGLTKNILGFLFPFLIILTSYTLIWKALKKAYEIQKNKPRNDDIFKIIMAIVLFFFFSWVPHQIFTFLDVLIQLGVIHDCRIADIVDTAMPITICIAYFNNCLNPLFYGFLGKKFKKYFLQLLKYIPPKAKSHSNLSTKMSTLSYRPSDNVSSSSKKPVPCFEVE
Experiment: Receptor binding assay using rabbit aortae membrane preparation ("IC50" assay; displacement of 125I-Sar1 Ile8-angiotensin II)
Conditions: membrane preparation derived from rabbit aortae; 37° C., 90 minutes; read-out: inhibitory concentration (IC50) giving 50% displacement of the total specifically bound 125I-Sar1 Ile8-angiotensin II
Protocol: This assay is also referred to herein as the "IC 50 "assay.
RECEPTOR BINDING ASSAY USING RABBIT AORTAE MEMBRANE PREPARATION
Three frozen rabbit aortae (obtained from Pel-Freeze Biologicals) were suspended in 5 mM Tris-0.25 M Sucrose, pH 7.4 buffer (50 ml) homogenized, and then centifuged. The mixture was filtered through a cheesecloth and the supernatant was centrifuged for 30 minutes at 20,000 rpm at 4° C. The pellet thus obtained was resuspended in 30 ml of 50 mM Tris-5 mM MgCl2 buffer containing 0.2% Bovine Serum Albumin and 0.2 mg/ml Bacitration and the suspension was used for 100 assay tubes. Samples tested for screening were done in duplicate. To the membrane preparation (0.25 ml) there was added ^125 I-Sar^1 Ile^8 -angiotensin II [obtained from New England Nuclear] (10 ul; 20,000 cpm) with or without the test sample and the mixture was incubated at 37° C. for 90 minutes. The mixture was then diluted with ice-cold 50 mM Tris-0.9% NaCl, pH 7.4 (4 ml) and filtered through a glass fiber filter (GF/B Whatman 2.4" diameter). The filter was soaked in scintillation cocktail (10 ml) and counted for radioactivity using Packard 2660 Tricarb liquid scintillation counter. […]

CCc1nc2c(C)cc(C)nc2n1Cc1ccc(-c2ccccc2-c2nnn([C@@H]3O[C@H](C(=O)O)[C@@H](O)[C@H](O)[C@H]3O)n2)cc1 [compound (I)]
pIC50: > 4.30
